# Reference: US20240239792A1, “MODULATORS OF BCL-2 OR BCL-2/BCL-XL AND USES THEREOF” (APPICINE THERAPEUTICS (HK) LIMITED, priority 2021, published 2024)
# What was measured:
# BCL-2 = molecular target: T1, BCL-2 (Homo sapiens, UniProt P10415); test: HTRF BCL-2/BAK assay (Cisbio); assay type: binding; settings: recombinant human Tag1-BCL-2 2 nM, Tag2-BAK 10 nM
# T1 construct: purchased Cisbio 63ADK000CB01PEG
# Experimental: (§1) Then the pre-mixed anti-Tag1-Eu^3+ and anti-tag2-XL665 were added to the plate and further incubated at room temperature for another 2 hours. The signals ([…]) were read on Envision 2104 instrument. The IC50 for each compound was derived from fitting the signal of 665/615 nM to the increasing compound concentration.
# (§2) Using the above assays, the following compounds were tested.
# BCL-XL = molecular target: T2, BCL-XL (Homo sapiens, UniProt Q07817); test: HTRF BCL-XL/BAK assay (Cisbio); assay type: binding; settings: recombinant human Tag1-BCL-XL 2 nM, Tag2-BAK 5 nM
# T2 construct: purchased Cisbio 63ADK000CB04PEG
# Experimental: as §1, §2
# DOHH2 cells = test: CellTiter-Glo cell proliferation assay, DOHH2 cells; assay type: cell-based; settings: Homo sapiens, DOHH-2, 72 hours
# Summary of the method: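 DOHH2 cells seeded in DMEM + 10% FBS, exposed to serially diluted compound for 72 h at 37 °C, 5% CO2. Viability read by CellTiter-Glo luminescence; GI50 calculated.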
# T2 sequence (Q07817 whole entry): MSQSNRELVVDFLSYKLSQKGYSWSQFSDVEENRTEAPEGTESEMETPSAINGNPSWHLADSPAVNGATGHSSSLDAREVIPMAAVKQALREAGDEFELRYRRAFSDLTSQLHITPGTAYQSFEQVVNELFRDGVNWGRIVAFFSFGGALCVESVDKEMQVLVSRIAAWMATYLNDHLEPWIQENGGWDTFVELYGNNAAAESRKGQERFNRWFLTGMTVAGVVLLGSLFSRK
# T1 sequence (P10415 whole entry): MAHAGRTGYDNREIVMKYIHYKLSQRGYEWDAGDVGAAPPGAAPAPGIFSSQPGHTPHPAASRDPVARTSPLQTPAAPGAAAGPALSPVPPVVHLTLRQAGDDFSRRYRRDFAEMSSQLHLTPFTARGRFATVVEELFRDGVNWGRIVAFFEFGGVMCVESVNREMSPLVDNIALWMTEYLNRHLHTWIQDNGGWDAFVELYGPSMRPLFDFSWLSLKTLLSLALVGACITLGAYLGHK
Compound,IC50 (BCL-2),IC50 (BCL-XL),GI50 (DOHH2 cells)
"O=C(NS(=O)(=O)c1ccc(NCC2CCN(C3COC3)CC2)c([N+](=O)[O-])c1)c1ccc(N2CCN([C@@H]3CCCCc4c(Cl)cccc43)CC2)cc1Oc1cnc2[nH]ccc2c1 [Compound 83, (R)-2-((1H-pyrrolo[2,3-b]pyridin-5-yl)oxy)-4-(4-(1-chloro-6,7,8,9-tetrahydro-5H-benzo[7]annulen-5-yl)piperazin-1-yl)-N-((3-nitro-4-(((1-(oxetan-3-yl)piperidin-4-yl)methyl)amino)phenyl)sulfonyl)benzamide]",< 20 nM,< 20 nM,< 50 nM
"CC(C)[C@H](N)C(=O)N1CCC2(CC1)CC(CNc1ccc(S(=O)(=O)NC(=O)c3ccc(N4CCN([C@@H]5CCCCc6c(Cl)cccc65)CC4)cc3Oc3cnc4[nH]ccc4c3)cc1[N+](=O)[O-])C2 [Compound 125, 2-((1H-pyrrolo[2,3-b]pyridin-5-yl)oxy)-N-((4-(((7-(L-valyl)-7-azaspiro[3.5]nonan-2-yl)methyl)amino)-3-nitrophenyl)sulfonyl)-4-(4-((R)-1-chloro-6,7,8,9-tetrahydro-5H-benzo[7]annulen-5-yl)piperazin-1-yl)benzamide]",< 20 nM,< 20 nM,< 50 nM
"CC(=O)Nc1ccc2c(c1)C(N1CCN(c3ccc(C(=O)NS(=O)(=O)c4ccc(NCC5CCOCC5)c([N+](=O)[O-])c4)c(Oc4cnc5[nH]ccc5c4)c3)CC1)CCCC2 (stereo not drawn) [Compound 34, 2-((1H-pyrrolo[2,3-b]pyridin-5-yl)oxy)-4-(4-(3-acetamido-6,7,8,9-tetrahydro-5H-benzo[7]annulen-5-yl)piperazin-1-yl)-N-((3-nitro-4-(((tetrahydro-2H-pyran-4-yl)methyl)amino)phenyl)sulfonyl)benzamide]",< 20 nM,200 to 2000 nM,500 to 5000 nM
"O=C(NS(=O)(=O)c1ccc(NCCN2CCC3(CC2)COC3)c([N+](=O)[O-])c1)c1ccc(N2CCN([C@@H]3CCCCc4c(Br)cccc43)CC2)cc1Oc1cnc2[nH]ccc2c1 [Compound 68, (R)-2-((1H-pyrrolo[2,3-b]pyridin-5-yl)oxy)-N-((4-((2-(2-oxa-7-azaspiro[3.5]nonan-7-yl)ethyl)amino)-3-nitrophenyl)sulfonyl)-4-(4-(1-bromo-6,7,8,9-tetrahydro-5H-benzo[7]annulen-5-yl)piperazin-1-yl)benzamide]",< 20 nM,< 20 nM,< 50 nM
"O=C(NS(=O)(=O)c1ccc(NCC2COC3OCCC23)c([N+](=O)[O-])c1)c1ccc(N2CCN(C3CCCCc4c(Cl)cccc43)CC2)cc1Oc1cnc2[nH]ccc2c1 (stereo not drawn) [Compound 64, 2-((1H-pyrrolo[2,3-b]pyridin-5-yl)oxy)-4-(4-(1-chloro-6,7,8,9-tetrahydro-5H-benzo[7]annulen-5-yl)piperazin-1-yl)-N-((4-(((hexahydrofuro[2,3-b]furan-3-yl)methyl)amino)-3-nitrophenyl)sulfonyl)benzamide]",< 20 nM,20 to 200 nM,50 to 500 nM
"CN1CCC(CNc2ccc(S(=O)(=O)NC(=O)c3ccc(N4CCN(C5CCCCc6c(Cl)cccc65)CC4)cc3Oc3cnc4[nH]ccc4c3)cc2[N+](=O)[O-])CC1 (stereo not drawn) [Compound 29, 2-((1H-pyrrolo[2,3-b]pyridin-5-yl)oxy)-4-(4-(1-chloro-6,7,8,9-tetrahydro-5H-benzo[7]annulen-5-yl)piperazin-1-yl)-N-((4-(((1-methylpiperidin-4-yl)methyl)amino)-3-nitrophenyl)sulfonyl)benzamide]",< 20 nM,< 20 nM,< 50 nM
"O=C(NS(=O)(=O)c1ccc(NCC2CC3(CCNCC3)C2)c([N+](=O)[O-])c1)c1ccc(N2CCN([C@@H]3CCCCc4c(Cl)cccc43)CC2)cc1 [Compound 117, (R)-N-((4-(((7-azaspiro[3.5]nonan-2-yl)methyl)amino)-3-nitrophenyl)sulfonyl)-4-(4-(1-chloro-6,7,8,9-tetrahydro-5H-benzo[7]annulen-5-yl)piperazin-1-yl)benzamide]",20 to 200 nM,20 to 200 nM,> 5000 nM
"CCOC(=O)CCN1CCC2(CC1)CC(CNc1ccc(S(=O)(=O)NC(=O)c3ccc(N4CCN([C@@H]5CCCCc6c(Cl)cccc65)CC4)cc3Oc3cnc4[nH]ccc4c3)cc1[N+](=O)[O-])C2 [Compound 130, ethyl (R)-3-(2-(((4-(N-(2-((1H-pyrrolo[2,3-b]pyridin-5-yl)oxy)-4-(4-(1-chloro-6,7,8,9-tetrahydro-5H-benzo[7]annulen-5-yl)piperazin-1-yl)benzoyl)sulfamoyl)-2-nitrophenyl)amino)methyl)-7-azaspiro[3.5]nonan-7-yl)propanoate]",< 20 nM,< 20 nM,< 50 nM
"O=C(NS(=O)(=O)c1ccc(NCC2CC3(COC3)C2)c([N+](=O)[O-])c1)c1ccc(N2CCN(C3CCCCc4c(Cl)cccc43)CC2)cc1Oc1cnc2[nH]ccc2c1 (stereo not drawn) [Compound 46, 2-((1H-pyrrolo[2,3-b]pyridin-5-yl)oxy)-N-((4-(((2-oxaspiro[3.3]heptan-6-yl)methyl)amino)-3-nitrophenyl)sulfonyl)-4-(4-(1-chloro-6,7,8,9-tetrahydro-5H-benzo[7]annulen-5-yl)piperazin-1-yl)benzamide]",< 20 nM,20 to 200 nM,< 50 nM
"O=C(NS(=O)(=O)c1ccc(NCC2CCOCC2)c([N+](=O)[O-])c1)c1ccc(N2CCN(C3CCCCc4c(-c5ccccc5)cccc43)CC2)cc1Oc1cnc2[nH]ccc2c1 (stereo not drawn) [Compound 19, 2-((1H-pyrrolo[2,3-b]pyridin-5-yl)oxy)-N-((3-nitro-4-(((tetrahydro-2H-pyran-4-yl)methyl)amino)phenyl)sulfonyl)-4-(4-(1-phenyl-6,7,8,9-tetrahydro-5H-benzo[7]annulen-5-yl)piperazin-1-yl)benzamide]",< 20 nM,> 2000 nM,500 to 5000 nM
"O=C(NS(=O)(=O)c1ccc(NCC2CCOCC2)c([N+](=O)[O-])c1)c1ccc(N2CCN(C3CCCc4cccc(-c5ccc(Cl)cc5)c43)CC2)cc1Oc1cnc2[nH]ccc2c1 (stereo not drawn) [Compound 16, 2-((1H-pyrrolo[2,3-b]pyridin-5-yl)oxy)-4-(4-(8-(4-chlorophenyl)-1,2,3,4-tetrahydronaphthalen-1-yl)piperazin-1-yl)-N-((3-nitro-4-(((tetrahydro-2H-pyran-4-yl)methyl)amino)phenyl)sulfonyl)benzamide]",< 20 nM,200 to 2000 nM,500 to 5000 nM

# More lines, main results first:
IC50 (BCL-2),IC50 (BCL-XL),Compound,GI50 (DOHH2 cells)
< 20 nM,< 20 nM,"NCCN1CCC2(CC1)CC(CNc1ccc(S(=O)(=O)NC(=O)c3ccc(N4CCN([C@@H]5CCCCc6c(Cl)cccc65)CC4)cc3Oc3cnc4[nH]ccc4c3)cc1[N+](=O)[O-])C2 [Compound 110, (R)-2-((1H-pyrrolo[2,3-b]pyridin-5-yl)oxy)-N-((4-(((7-(2-aminoethyl)-7-azaspiro[3.5]nonan-2-yl)methyl)amino)-3-nitrophenyl)sulfonyl)-4-(4-(1-chloro-6,7,8,9-tetrahydro-5H-benzo[7]annulen-5-yl)piperazin-1-yl)benzamide]",< 50 nM
20 to 200 nM,> 2000 nM,"CCP(=O)(CC)c1cccc2c1CCCCC2N1CCN(c2ccc(C(=O)NS(=O)(=O)c3ccc(NCC4CCOCC4)c([N+](=O)[O-])c3)c(Oc3cnc4[nH]ccc4c3)c2)CC1 (stereo not drawn) [Compound 62, 2-((1H-pyrrolo[2,3-b]pyridin-5-yl)oxy)-4-(4-(1-(diethylphosphoryl)-6,7,8,9-tetrahydro-5H-benzo[7]annulen-5-yl)piperazin-1-yl)-N-((3-nitro-4-(((tetrahydro-2H-pyran-4-yl)methyl)amino)phenyl)sulfonyl)benzamide]",> 5000 nM
20 to 200 nM,200 to 2000 nM,"O=C(NS(=O)(=O)c1ccc(NCC2CCOCC2)c([N+](=O)[O-])c1)c1ccc(N2CCN(C3CCCCc4cc(Br)ccc43)CC2)cc1Oc1cnc2[nH]ccc2c1 (stereo not drawn) [Compound 23, 2-((1H-pyrrolo[2,3-b]pyridin-5-yl)oxy)-4-(4-(2-bromo-6,7,8,9-tetrahydro-5H-benzo[7]annulen-5-yl)piperazin-1-yl)-N-((3-nitro-4-(((tetrahydro-2H-pyran-4-yl)methyl)amino)phenyl)sulfonyl)benzamide]",500 to 5000 nM
< 20 nM,20 to 200 nM,"O=C(NS(=O)(=O)c1ccc(NCC2CC3(COC3)C2)c([N+](=O)[O-])c1)c1ccc(N2CCN([C@@H]3CCCCc4c3cccc4[N+](=O)[O-])CC2)cc1Oc1cnc2[nH]ccc2c1 [Compound 75, (R)-2-((1H-pyrrolo[2,3-b]pyridin-5-yl)oxy)-N-((4-(((2-oxaspiro[3.3]heptan-6-yl)methyl)amino)-3-nitrophenyl)sulfonyl)-4-(4-(1-nitro-6,7,8,9-tetrahydro-5H-benzo[7]annulen-5-yl)piperazin-1-yl)benzamide]",< 50 nM
< 20 nM,< 20 nM,"O=C(NS(=O)(=O)c1ccc(NCC2CCn3ccnc3C2)c([N+](=O)[O-])c1)c1ccc(N2CCN(C3CCCCc4c(Cl)cccc43)CC2)cc1Oc1cnc2[nH]ccc2c1 (stereo not drawn) [Compound 53, 2-((1H-pyrrolo[2,3-b]pyridin-5-yl)oxy)-4-(4-(1-chloro-6,7,8,9-tetrahydro-5H-benzo[7]annulen-5-yl)piperazin-1-yl)-N-((3-nitro-4-(((5,6,7,8-tetrahydroimidazo[1,2-a]pyridin-7-yl)methyl)amino)phenyl)sulfonyl)benzamide]",50 to 500 nM
